# Measured values taken from patent US20240247031A1, “COMPOSITION FOR TREATING CANCER CONTAINING TELOMERASE-TARGETING GNRH ANTAGONIST-DERIVED PEPTIDE HS1002” (Research & Business Foundation Sungkyunkwan University, priority 2023, published 2024).
# What was measured:
# [1] = tested on: hTERT; test: hTERT mRNA and protein expression, western blot and qPCR (FIG. 10, 11); type: cell-based, human; conditions: LNCaP, different concentrations, western blot
# Experimental: To analyze the changes in the hTERT expression level and telomerase activity by the treatment with the produced peptides, real-time PCR was performed. Total RNA was extracted from cells by using an Easy-blue RNA extraction reagent (Intron, Korea), and subsequently, the extracted RNA was reverse transcribed using M-ML V reverse transcriptase (Invitrogen, CA). The PCR reaction was then performed using a LightCycler 480 SYBR Green I Master (Roche, Germany) according to the manufacturer's instructions. […]
# Quantitative real-time RT-PCR (qRT-PCR) was performed using a Power SYBR Green 1-Step Kit and an ABI 7000 Real Time PCR System (Applied Biosystems, Carlsbad, CA, USA) according to the manufacturer's indications. […] The results were expressed as the ratio of target PCR product to GAPDH product. […] The quantification was performed using the ΔΔCT method (Applied Biosystems) with the RQ manager 1.2 software. Data are expressed as mean±SD. […]
# After treatment with GV1001, HS1001, HS1002, and GnRH, the changes in hTERT mRNA and protein expression level were investigated for each peptide. […] To investigate the telomerase activity reducing effect of the peptides, prostate cancer cell lines (LNCaP) were treated with each drug at 300 μM every 24 h for a total of 72 h and then measured for telomerase activity through qPCR. […]
# [2] = tested on: c-Myc, AKT, ERK1/2 in LNCaP tumor xenografts; test: Western blot of c-Myc and signaling proteins in LNCaP-xenografted tumors (FIG. 14); type: in vivo, mouse; conditions: LNCaP xenograft; HS1002 1 mg/kg/day, LA 0.1 mg/kg/day s.c.
# Experimental: The cells and tumor tissues were homogenized using the PRO-PREP™ extraction solution (iNtRON Biotechnology, Seongnam, Korea). After incubation, the homogenate was centrifuged at 16,000×g for 20 min at 4° C., and the supernatant was collected for western blot analysis. Subsequently, an equivalent quantity of protein was separated using sodium dodecyl sulfate polyacrylamide gels and transferred onto a polyvinylidene difluoride (PVDF) membrane. The PVDF membranes were incubated with the primary antibodies overnight at 4° C., washed with tris-buffered saline, and then incubated with HRP-conjugated anti-mouse or anti-rabbit antibodies. The bands were visualized using a ChemiDoc imaging system (Bio-Rad, Hercules, CA, USA). The band intensities were determined using an Image J software.
# All mice were purchased from Central Lab Animal Inc. ([…]). They were raised in a 12 h environmental light/dark cycle with controlled temperature (22±2° C.) conditions. The experimental protocol was approved by the Sungkyunkwan University Institutional Animal Care and Use Committee (SKKUIACUC2021-06-27-1, SKKUIACUC2023-01-07-1). For the establishment of tumors, LNCaP (1×10^7), MC38 (2×10^5), and 4T1 (1×10^6) suspended in serum-free media containing 50% Matrigel was subcutaneously administered in the right flank of mice, respectively. The tumor volumes (V) were calculated using a caliper and the standard equation: V (mm^3)=0.52 (ab^2) (a=length, b=width). Once the tumor reached 100-200 mm^3, the mice were randomly divided into different groups and subcutaneously injected with a vehicle or each peptide every day.
# To investigate the anticancer effect of HS1002, the present inventors observed the volume of cancer cells after transplanting the cancer cells into experimental animals. Specifically, mice (4-week-old male BALB/c nude mice; Central Lab. Animal Inc., Seoul, Korea) were prepared, and tumor cells (1×10^7 LNCaP cells) suspended in 1 mL of a serum-free medium containing 50% Matrigel were percutaneously injected into the upper flank of each nude mouse. When the tumor cell volume reached about 200 mm^3, the mice were randomly assigned to a vehicle control group, a leuprolide acetate-treated group, and test groups (GV1001-treated group and HS1002-treated group), respectively. Leuprolide acetate (0.1 mg/kg/day) and GV1001 and HS1002 (1 mg/kg/day) were injected subcutaneously for 13 days.
smiles,measurement,setting,value
CCNC(=O)[C@@H]1CCCN1C(=O)[C@@H](NC(=O)[C@H](Cc1ccccc1)NC(=O)[C@H](CCCNC(=N)N)NC(=O)[C@H](CC(C)C)NC(=O)[C@H](CCCNC(=N)N)NC(=O)[C@H](Cc1ccc(O)cc1)NC(=O)[C@H](CO)NC(=O)[C@H](Cc1c[nH]c2ccccc12)NC(=O)[C@H](Cc1c[nH]cn1)NC(=O)[C@@H]1CCC(=O)N1)[C@@H](C)CC [HS1002],"hTERT protein expression, concentration dependence",[1],reduced with an increasing concentration
same,expression of c-Myc in tumor tissue,[2],significantly downregulated
same,expression of p-AKT in tumor tissue,[2],significantly downregulated
same,expression of p-ERK1/2 in tumor tissue,[2],significantly downregulated
